{"source": "patent US9817000B2", "about": "“Method for identifying compounds that modulate a T2R taste receptor” (The Regents of the University of California, priority 1999, dated 2017)", "biological_target": "T1, mT2R5 coupling to Gαs, Gαi, Gαq or Gαo (Mus musculus, UniProt Q9JKT4)", "T1 construct": "infectious Bacmid containing rhodopsin tagged mT2R5 (DBA/2-allele) was produced using the Bac-to-Bac system; rhodopsin tag (rho); made in house; host or cells: insect larval cells infected with recombinant Bacmid (Bac-to-Bac); membrane preparation", "T1 sequence (Q9JKT4 1-300)": "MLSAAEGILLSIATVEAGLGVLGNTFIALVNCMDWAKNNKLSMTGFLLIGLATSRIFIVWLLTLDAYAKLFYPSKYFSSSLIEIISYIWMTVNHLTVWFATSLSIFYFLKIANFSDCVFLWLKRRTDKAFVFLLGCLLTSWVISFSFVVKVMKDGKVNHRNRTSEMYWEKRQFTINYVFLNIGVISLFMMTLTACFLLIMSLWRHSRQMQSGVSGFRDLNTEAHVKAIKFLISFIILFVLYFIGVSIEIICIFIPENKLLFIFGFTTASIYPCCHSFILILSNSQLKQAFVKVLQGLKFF", "test": "Tastant-induced GTPγS binding to other G-protein α-subunits with mT2R5 membranes", "format": "biochemical", "description": "To investigate the selectivity of T2R-G-protein coupling, mT2R5 was chosen for study because its activation by cycloheximide recapitulates mouse taste responses. Rho-tagged mT2R5 and gustducin were prepared using a baculovirus expression system. mT2R5-containing membranes were incubated with various purified G-proteins, including gustducin, and measured tastant-induced GTP-γS binding (Hoon et al., Biochem J 309:629-636 (1995)). Specifically, infectious Bacmid containing rhodopsin tagged mT2R5 (DBA/2-allele) was produced using the Bac-to-Bac system (Lifetechnologies, MD). Insect larval cells were infected for 60 h with recombinant Bacmid and membranes were prepared as described previously (Ryba and Tirindelli, J Biol Chem, 270:6757-6767 (1995)). Peripheral proteins were removed by treatment with 8 M urea and membranes were resuspended in 10 mM HEPES pH7.5, 1 mM EDTA and 1 mM DTT. The expression of rho-mT2R5 was assessed by Western blot using mAb B6-30 and quantitated by comparison with known amounts of rhodopsin. Approximately 300 pmol of rho-mT2R5 could be obtained from 2×10^8 infected cells. […] Receptor-catalyzed exchange of GDP for GTPγS on gustducin and other G-protein α-subunits was measured in the presence of 10 nM rho-mT2R5, 100 μM GDP, and 20 μM Gβ1γ8. […]", "data": [{"smiles": "C[C@@H]1C[C@@H]([C@H](O)CC2CC(=O)NC(=O)C2)C(=O)[C@@H](C)C1", "note": "[cycloheximide]", "values": [{"measurement": "coupling of mT2R5 to other G-proteins", "value": "no coupling"}]}]}
